ChEMBL document CHEMBL5214988, “Design, Synthesis, and Biological Evaluation of 5-Formyl-pyrrolo[3,2-b]pyridine-3-carboxamides as New Selective, Potent, and Reversible-Covalent FGFR4 Inhibitors” (J Med Chem, 2022)

What was measured:
[1] = AUC (0 to infinity) in ICR mouse at 2 mg/kg, iv measured upto 24 hrs by LC-MS/MS analysis; format: ADME, organism-based; parameters: time < 24 hrs, dose 2 mg/kg, route iv; settings: in vivo
[2] = Tmax in ICR mouse at 2 mg/kg, iv measured upto 24 hrs by LC-MS/MS analysis; format: ADME, organism-based; settings: in vivo
[3] = MRT (0 to t) in ICR mouse at 10 mg/kg, po measured upto 24 hrs by LC-MS/MS analysis; format: ADME, organism-based; settings: in vivo
[4] = Metabolic stability in mouse liver microsomes assessed as half life incubated upto 60 mins in presence of NADPH by LC-MS/MS analysis; format: ADME, Microsome; settings: 1 h
[5] = Oral bioavailability in ICR mouse at 10 mg/kg measured upto 24 hrs by LC-MS/MS analysis; format: ADME, organism-based; settings: in vivo
[6] = AUC (0 to t) in ICR mouse at 10 mg/kg, po measured upto 24 hrs by LC-MS/MS analysis; format: ADME, organism-based; parameters: dose 10 mg/kg, time < 24 hrs, route po; settings: in vivo
[7] = Half life in ICR mouse at 2 mg/kg, iv measured upto 24 hrs by LC-MS/MS analysis; format: ADME, organism-based; settings: in vivo
[8] = Observed clearance in ICR mouse at 2 mg/kg, iv measured upto 24 hrs by LC-MS/MS analysis; format: ADME, organism-based; settings: in vivo
[9] = Tmax in ICR mouse at 10 mg/kg, po measured upto 24 hrs by LC-MS/MS analysis; format: ADME, organism-based; settings: in vivo
[10] = AUC (0 to t) in ICR mouse at 2 mg/kg, iv measured upto 24 hrs by LC-MS/MS analysis; format: ADME, organism-based; parameters: time < 24 hrs, dose 2 mg/kg, route iv; settings: in vivo
[11] = Cmax in ICR mouse at 10 mg/kg, po measured upto 24 hrs by LC-MS/MS analysis; format: ADME, organism-based; parameters: dose 10 mg/kg, time < 24 hrs, route po; settings: in vivo
[12] = Half life in ICR mouse at 10 mg/kg, po measured upto 24 hrs by LC-MS/MS analysis; format: ADME, organism-based; settings: in vivo
[13] = AUC (0 to infinity) in ICR mouse at 10 mg/kg, po measured upto 24 hrs by LC-MS/MS analysis; format: ADME, organism-based; parameters: time < 24 hrs, dose 10 mg/kg, route po; settings: in vivo
[14] = MRT (0 to t) in ICR mouse at 2 mg/kg, iv measured upto 24 hrs by LC-MS/MS analysis; format: ADME, organism-based; settings: in vivo
[15] = Cmax in ICR mouse at 2 mg/kg, iv measured upto 24 hrs by LC-MS/MS analysis; format: ADME, organism-based; parameters: time < 24 hrs, dose 2 mg/kg, route iv; settings: in vivo

`C[C@@H](Oc1cc(NC(=O)c2cn(CCN3CCOCC3)c3cc(Br)c(C=O)nc23)ncc1C#N)c1c(Cl)cncc1Cl` showed an AUC(0-inf) [1] of 704 ng·h/mL, a Tmax [2] of 4.98 min and an MRT last at 24 h [3] of 104 min. It also gave a t1/2 [4] of 696 min, a bioavailability [5] of 1.1% and an AUC(0-t) at 24 h [6] of 29.5 ng·h/mL. For the same molecule, the half-life [7] was 45.6 min, the clearance [8] was 49.7 mL/min/kg and the Tmax [9] was 23.4 min. For the same molecule, the AUC(0-t) at 24 h [10] was 702 ng·h/mL, the Cmax [11] was 13.4 ng/mL and the half-life [12] was 196 min. The AUC(0-inf) [13] was 38.6 ng·h/mL, the MRT last at 24 h [14] was 29.4 min and the Cmax [15] was 1640 ng/mL.
